Values joined by “and” are separate entries in the source; they are usually repeats but may differ in a detail not shown here. Equal entries are not always repeated. Where two headings read alike, the source gives them in different places.
Experiments:
[1] = blood pressure and pulse of treated type 2 diabetic patients; type: in vivo, human; conditions: oral 14.5 mg dihydralazine sulphate twice daily; for RRsyst: blood pressure (systolic): before treatment 153
Description: (§1) After giving their informed consent, patients participating in the study were treated for 56 days taking ½ tablet twice daily of a pharmaceutical composition containing 28.9 mg dihydralazine sulphate (i.e. the ½ tablet contained 14.5 mg dihydralazine sulphate).
(§2) To measure the efficacy and monitor the safety of the treatment, the following examinations were carried out before starting the treatment and at the 1., 7., 14., 28. and 56. day of the treatment: • 1. ocular examinations: visual acuity (ETDRS chart), slit-lamp examination, measurement of intraocular pressure with applanation tonometry, fundus biomicroscopy with pupil dilation, digital fundus photography. The grade of macular edema was determined via measuring retinal thickness with optical coherency tomography (OCT). • 2. internal medicine examinations: anamnesis, physical examinations, blood pressure, pulse, urine examination. • 3. laboratory examinations: blood glucose, HbA1c, liver function, kidney function, microalbuminuria, metabolic panel of the blood , lipids, CRP.
(§3) In the table the following abbreviations were used: • BMI: body mass index - weight (kg) / height (m^2) • RRsyst: blood pressure (systolic) (Hgmm) • RRdiast: blood pressure (diastolic) (Hgmm) • OCT CST (central subfield thickness): the average thickness of the central 1-mm area of the macula • OCT CPT (center point thickness): the thickness of the center point of the retina; normally that is the thinnest point of the macula Table 4.

SSAO = biological target: T1, SSAO (Rattus norvegicus, UniProt O08590); assay: serum SSAO activity in vivo in rats after sc treatment; conditions: for Specific activity (pmol/mg/h) Mean / Inhibition (%) / Specific activity / inhibition at 10 µmol/kg / inhibition at 100 µmol/kg: rat serum SSAO; for Specific activity (pmol/mg/h) Mean / Specific activity: control mean 3.373; for inhibition at 10 µmol/kg / inhibition at 100 µmol/kg: rat, sc
T1 construct: from tissue; host or cells: rat serum (blood supernatant) of treated animals
T1 sequence (O08590 28-763 limits assumed): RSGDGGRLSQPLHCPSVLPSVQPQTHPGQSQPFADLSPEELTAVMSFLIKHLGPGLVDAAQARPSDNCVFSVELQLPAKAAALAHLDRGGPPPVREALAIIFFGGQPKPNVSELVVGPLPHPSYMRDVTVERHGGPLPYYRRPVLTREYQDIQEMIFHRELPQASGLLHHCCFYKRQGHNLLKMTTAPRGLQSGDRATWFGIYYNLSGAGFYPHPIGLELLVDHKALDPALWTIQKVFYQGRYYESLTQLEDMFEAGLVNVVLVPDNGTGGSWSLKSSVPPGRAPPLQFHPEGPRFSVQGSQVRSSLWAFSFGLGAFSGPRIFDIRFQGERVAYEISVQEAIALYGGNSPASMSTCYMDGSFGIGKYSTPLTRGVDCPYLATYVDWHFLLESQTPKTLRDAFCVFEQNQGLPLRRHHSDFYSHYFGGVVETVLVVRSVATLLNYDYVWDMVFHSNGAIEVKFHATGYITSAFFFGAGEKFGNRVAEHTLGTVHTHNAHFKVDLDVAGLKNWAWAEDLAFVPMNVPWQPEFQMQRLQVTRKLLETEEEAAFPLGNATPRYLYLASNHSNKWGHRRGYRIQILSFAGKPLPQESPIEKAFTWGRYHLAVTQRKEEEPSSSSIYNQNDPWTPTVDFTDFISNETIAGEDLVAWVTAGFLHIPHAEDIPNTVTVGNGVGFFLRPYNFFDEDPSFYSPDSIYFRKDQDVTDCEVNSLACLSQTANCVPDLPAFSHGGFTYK
Description: Rats were treated sc with 0.1 or 0.01 M dihydralazine solution (0.1 ml/100 g) once daily for 1-5 days. On the appropriate day, 2 hours after the treatment the rats were decapitated and their blood was collected without anticoagulant in plastic centrifuge tubes. Blood samples were centrifuged at a low frequency (800 rpm/min) and the supernatant was used for the determination of SSAO activity applying ^14C-benzylamine substrate.
SSAO inhibition expressed in pmol/mg protein/hour units and in % values (mean ± S.D.) in the two treated groups is shown in table 2 and 3.

macular edema = macular edema of type 2 diabetic patients, retinal thickness by optical coherency tomography (OCT); type: in vivo, human; set-up: OCT CPT (center point thickness): unit not given beside the values; conditions: for OCT CPT (center point thickness) / OCT CST (central subfield thickness): oral 14.5 mg dihydralazine sulphate twice daily
Description: The effect of orally administered low dose dihydralazine on macular edema and serum SSAO activity was studied in type 2 diabetic patients in an early stage of macular edema formation.
as §1, §2, §3

[2] = sc 10 µmol/kg (1.9 mg/kg) once daily, 24 h, individual animals
[3] = sc 10 µmol/kg (1.9 mg/kg) once daily, 48 h, individual animals
[4] = sc 10 µmol/kg (1.9 mg/kg) once daily, 72 h, individual animals
[5] = sc 10 µmol/kg (1.9 mg/kg) once daily, 96 h, individual animals
[6] = sc 10 µmol/kg (1.9 mg/kg) once daily, 120 h, individual animals
[7] = sc 100 µmol/kg (19 mg/kg) once daily, 24 h, individual animals
[8] = sc 100 µmol/kg (19 mg/kg) once daily, 48 h, individual animals
[9] = sc 100 µmol/kg (19 mg/kg) once daily, 72 h, individual animals
[10] = sc 100 µmol/kg (19 mg/kg) once daily, 96 h, individual animals
[11] = sc 100 µmol/kg (19 mg/kg) once daily, 120 h, individual animals

NNc1nnc(NN)c2ccccc12 [dihydralazine]
pulse ([1]; 1. patient, 14. day, before treatment 60): 69 beats/min | RRdiast: blood pressure (diastolic) ([1]; 1. patient, 14. day, before treatment 63): 70 Hgmm | RRsyst: blood pressure (systolic) ([1]; 1. patient, 14. day): 154 Hgmm | pulse ([1]; 1. patient, 28. day, before treatment 60): 69 beats/min | RRdiast: blood pressure (diastolic) ([1]; 1. patient, 28. day, before treatment 63): 68 Hgmm | RRsyst: blood pressure (systolic) ([1]; 1. patient, 28. day): 152 Hgmm | pulse ([1]; 1. patient, 56. day, before treatment 60): 60 beats/min | RRdiast: blood pressure (diastolic) ([1]; 1. patient, 56. day, before treatment 63): 67 Hgmm | RRsyst: blood pressure (systolic) ([1]; 1. patient, 56. day): 161 Hgmm | RRdiast: blood pressure (diastolic) ([1]; 2. patient, 14. day, before treatment 76): 65 Hgmm | pulse ([1]; 2. patient, 14. day, before treatment 79): 89 beats/min | RRsyst: blood pressure (systolic) ([1]; 2. patient, 14. day): 150 Hgmm | RRdiast: blood pressure (diastolic) ([1]; 2. patient, 28. day, before treatment 76): 74 Hgmm | pulse ([1]; 2. patient, 28. day, before treatment 79): 93 beats/min | RRsyst: blood pressure (systolic) ([1]; 2. patient, 28. day): 158 Hgmm | RRdiast: blood pressure (diastolic) ([1]; 2. patient, 56. day, before treatment 76): 64 Hgmm | pulse ([1]; 2. patient, 56. day, before treatment 79): 77 beats/min | RRsyst: blood pressure (systolic) ([1]; 2. patient, 56. day): 126 Hgmm | blood pressure ([1]; type 2 diabetic patients): did not cause significant change of blood pressure | SSAO inhibition (SSAO; animal experiments, low dose without appreciable blood pressure lowering effect): significant SSAO inhibition | Specific activity (pmol/mg/h) Mean (SSAO; sc 10 µmol/kg (1.9 mg/kg) once daily, 24 h, group mean): 1.580 pmol/mg/h | Inhibition (%) (SSAO; [2]): 37% and 57% | Specific activity (SSAO; [2]): 2.11 pmol/mg/h and 1.19 pmol/mg/h and 1.44 pmol/mg/h | Specific activity (pmol/mg/h) Mean (SSAO; sc 10 µmol/kg (1.9 mg/kg) once daily, 48 h, group mean): 1.595 pmol/mg/h | Inhibition (%) (SSAO; [3]): 52% and 55% | Specific activity (SSAO; [3]): 1.66 pmol/mg/h and 1.61 pmol/mg/h and 1.52 pmol/mg/h | Specific activity (pmol/mg/h) Mean (SSAO; sc 10 µmol/kg (1.9 mg/kg) once daily, 72 h, group mean): 1.244 pmol/mg/h | Inhibition (%) (SSAO; [4]): 69% | Specific activity (SSAO; [4]): 1.25 pmol/mg/h and 1.06 pmol/mg/h and 1.43 pmol/mg/h | Specific activity (pmol/mg/h) Mean (SSAO; sc 10 µmol/kg (1.9 mg/kg) once daily, 96 h, group mean): 1.344 pmol/mg/h | Inhibition (%) (SSAO; [5]): 71% and 42% | Specific activity (SSAO; [5]): 0.97 pmol/mg/h and 1.94 pmol/mg/h and 1.12 pmol/mg/h | Specific activity (pmol/mg/h) Mean (SSAO; sc 10 µmol/kg (1.9 mg/kg) once daily, 120 h, group mean): 1.425 pmol/mg/h | Inhibition (%) (SSAO; [6]): 77% and 14% and 82% | Specific activity (SSAO; [6]): 0.78 pmol/mg/h and 2.90 pmol/mg/h and 0.59 pmol/mg/h | Specific activity (pmol/mg/h) Mean (SSAO; sc 100 µmol/kg (19 mg/kg) once daily, 24 h, group mean): 1.094 pmol/mg/h | Inhibition (%) (SSAO; [7]): 69% | Specific activity (SSAO; [7]): 1.13 pmol/mg/h and 1.05 pmol/mg/h and 1.11 pmol/mg/h | Specific activity (pmol/mg/h) Mean (SSAO; sc 100 µmol/kg (19 mg/kg) once daily, 48 h, group mean): 1.481 pmol/mg/h | Inhibition (%) (SSAO; [8]): 47% and 61% | Specific activity (SSAO; [8]): 1.33 pmol/mg/h and 1.80 pmol/mg/h and 1.31 pmol/mg/h | Specific activity (pmol/mg/h) Mean (SSAO; sc 100 µmol/kg (19 mg/kg) once daily, 72 h, group mean): 1.177 pmol/mg/h | Inhibition (%) (SSAO; [9]): 66% | Specific activity (SSAO; [9]): 1.11 pmol/mg/h and 1.26 pmol/mg/h and 1.15 pmol/mg/h | Specific activity (pmol/mg/h) Mean (SSAO; sc 100 µmol/kg (19 mg/kg) once daily, 96 h, group mean): 0.859 pmol/mg/h | Inhibition (%) (SSAO; [10]): 73% | Specific activity (SSAO; [10]): 0.55 pmol/mg/h and 1.12 pmol/mg/h and 0.91 pmol/mg/h | Specific activity (pmol/mg/h) Mean (SSAO; sc 100 µmol/kg (19 mg/kg) once daily, 120 h, group mean): 0.730 pmol/mg/h | Inhibition (%) (SSAO; [11]): 62% and 90% and 83% | Specific activity (SSAO; [11]): 1.29 pmol/mg/h and 0.34 pmol/mg/h and 0.56 pmol/mg/h | inhibition at 10 µmol/kg (SSAO; sc 10 µmol/kg (1.9 mg/kg) once daily, 24 h, group mean, read-out: Inhibition (%) Mean): 53% | inhibition at 10 µmol/kg (SSAO; sc 10 µmol/kg (1.9 mg/kg) once daily, 48 h, group mean, read-out: Inhibition (%) Mean): 53% | inhibition at 10 µmol/kg (SSAO; sc 10 µmol/kg (1.9 mg/kg) once daily, 48 h, individual animals, read-out: Inhibition (%)): 51% | inhibition at 10 µmol/kg (SSAO; sc 10 µmol/kg (1.9 mg/kg) once daily, 72 h, group mean, read-out: Inhibition (%) Mean): 63% | inhibition at 10 µmol/kg (SSAO; sc 10 µmol/kg (1.9 mg/kg) once daily, 72 h, individual animals, read-out: Inhibition (%)): 63% | inhibition at 10 µmol/kg (SSAO; sc 10 µmol/kg (1.9 mg/kg) once daily, 96 h, group mean, read-out: Inhibition (%) Mean): 60% | inhibition at 10 µmol/kg (SSAO; sc 10 µmol/kg (1.9 mg/kg) once daily, 120 h, group mean, read-out: Inhibition (%) Mean): 58% | inhibition at 100 µmol/kg (SSAO; sc 100 µmol/kg (19 mg/kg) once daily, 24 h, group mean, read-out: Inhibition (%) Mean): 68% | inhibition at 100 µmol/kg (SSAO; sc 100 µmol/kg (19 mg/kg) once daily, 24 h, individual animals, read-out: Inhibition (%)): 67% | inhibition at 100 µmol/kg (SSAO; sc 100 µmol/kg (19 mg/kg) once daily, 48 h, group mean, read-out: Inhibition (%) Mean): 56% | inhibition at 100 µmol/kg (SSAO; sc 100 µmol/kg (19 mg/kg) once daily, 48 h, individual animals, read-out: Inhibition (%)): 60% | inhibition at 100 µmol/kg (SSAO; sc 100 µmol/kg (19 mg/kg) once daily, 72 h, group mean, read-out: Inhibition (%) Mean): 65% | inhibition at 100 µmol/kg (SSAO; sc 100 µmol/kg (19 mg/kg) once daily, 72 h, individual animals, read-out: Inhibition (%)): 67% | inhibition at 100 µmol/kg (SSAO; sc 100 µmol/kg (19 mg/kg) once daily, 96 h, group mean, read-out: Inhibition (%) Mean): 75% | inhibition at 100 µmol/kg (SSAO; sc 100 µmol/kg (19 mg/kg) once daily, 96 h, individual animals, read-out: Inhibition (%)): 84% | inhibition at 100 µmol/kg (SSAO; sc 100 µmol/kg (19 mg/kg) once daily, 120 h, group mean, read-out: Inhibition (%) Mean): 78% | OCT CPT (center point thickness) (macular edema; 1. patient, 14. day, before treatment 272): 215 | OCT CST (central subfield thickness) (macular edema; 1. patient, 14. day, before treatment 298): 266 | OCT CPT (center point thickness) (macular edema; 1. patient, 28. day, before treatment 272): 219 | OCT CST (central subfield thickness) (macular edema; 1. patient, 28. day, before treatment 298): 273 | OCT CPT (center point thickness) (macular edema; 1. patient, 56. day, before treatment 272): 209 | OCT CST (central subfield thickness) (macular edema; 1. patient, 56. day, before treatment 298): 265 | OCT CPT (center point thickness) (macular edema; 2. patient, 14. day, before treatment 257): 319 | OCT CST (central subfield thickness) (macular edema; 2. patient, 14. day, before treatment 302): 323 | OCT CPT (center point thickness) (macular edema; 2. patient, 28. day, before treatment 257): 239 | OCT CST (central subfield thickness) (macular edema; 2. patient, 28. day, before treatment 302): 286 | OCT CPT (center point thickness) (macular edema; 2. patient, 56. day, before treatment 257): 201 | OCT CST (central subfield thickness) (macular edema; 2. patient, 56. day, before treatment 302): 252 | macular edema (macular edema; 2 treated type 2 diabetic patients, oral 14.5 mg dihydralazine sulphate twice daily for 56 days): significant decrease of the macular edema was observed in the fovea

— patent EP2326328B1, “USE OF DIHYDRALAZINE FOR THE TREATMENT OF DISEASES RELATED TO ELEVATED SEMICARBAZIDE SENSITIVE AMINE-OXIDASE (SSAO) ACTIVITY” (Semmelweis Egyetem, priority 2008, dated 2010)
